From patent US20240307420A1, “IMPROVED METHODS FOR THE USE OF PSYCHEDELICS” (TRYP Therapeutics Inc., priority 2021, published 2024)
“And” between values parts separate entries of the source, which are not always exact repeats. Equal entries are not always repeated.

Key:
rats [1] = assay: Head twitching response in unrestrained rats prior to, during and after 60 minute infusion (separate study); assay type: in vivo; conditions: 10 mg/kg over 60 minutes IV
Procedure: In a separate study, unrestrained rats were infused with 10 mg/kg psilocybin over a 60 minute period and head twitching response (HTR) was recorded prior to during and after IV administration. HTR was consistently observed in all tested rats, within 5 minutes after initiation of the infusion, and persisted during the 60-minute infusion period. HTR was discontinued in the animals soon after the termination of the infusion, generally within 30 minutes after the termination of the infusion. The results of the HTR supported the more rapid achievement of the dissociative or psychedelic state, coincident with the rise in systemic plasma psilocin levels, and rapid exit from the dissociative or psychedelic state after the termination of infusion (e.g., as assessed in Example 1).

[2] = single oral administration of psilocybin at 0.225 mg/kg; cited from earlier work
rats [3] = assay: Head twitching response (HTR) after one-hour intravenous infusion, video recording; assay type: in vivo, Sprague Dawley rats; conditions: for Time after termination of infusion up to which head twitching was observed: after one hour 10 mg/kg IV infusion
Procedure: To assess the pharmacodynamics (PD) of intravenously infused psychedelics, animal head-twitching was recorded as an indicator of achieving the dissociative state. Head twitching response (HTR) is used as a surrogate PD marker for the animals achieving or being in the dissociative or psychedelic state (for example, as described in Zhuk et al., Toxins 2015, 7, 1018-1029; Halberstadt et al., J Psychopharmacol. 2011 25(11): 1548-1561). HTR was also used to determine when the end of the dissociative state occurred following discontinuation of the IV infusion.
To assess HTR, a video monitoring system was used to record the animals in this study from discontinuation of the infusion through to the terminal sampling time point (1-hour post infusion). A camera was positioned such that the animals were visible from above. The recording was saved for review and the time of the observed head-twitching behavior, the duration of the observed behavior, and any additional atypical observations were documented.
The number of head-twitching events observed within the 60 minute time period after the one hour intravenous infusion of each of the 3 rats receiving psilocin or psilocybin, were determined from the video recordings. […] Upon termination of the IV infusion of either psilocin or psilocybin, head twitching activity subsided within 50 minutes, supporting the rapid termination of the dissociative or psychedelic, compared to previously reported termination of the dissociative state after an oral administration of psilocybin.

rats [4] = assay: Von Frey assay (VFA) withdrawal threshold in formalin-induced rat pain model; assay type: in vivo; conditions: contra-lateral paw; single 10 mg/kg IV administration
From the text: (§1) Chronic pain in rats was induced by injection of formalin into the hind paw. The rats subsequently were intravenously administered psilocybin, and assessed for changes in pain perception over an extended period of time. The formalin pain model is a translational animal model for chronic nociplastic pain (Vanini G., Sleep 2016; 39(1): 133-42), including fibromyalgia, phantom limb pain or complex regional pain syndrome. In the formalin pain model, in addition to experiencing extra pain in the formalin-injected paw, the animal experiences increased pain perception (i.e., hyperalgesia) in extremities not injected with formalin (e.g., the contra-lateral hind paw compared to the one injected with formalin). The pain perception was measured in the contra-lateral paw to assess the potential benefit of psychedelics in nociplastic pain disorders. Reduction in pain perception and the duration of pain reduction were examined following intravenous bolus administration of 10 mg/kg psilocybin, administered over 3 minutes.
Two types of pain perception were measured. First, the Von Frey assay (VFA) was used to measure pain due to pressure exerted on the extremity (i.e., mechanical allodynia). Specifically. […] The minimum amount of force required to evoke a paw withdrawal response in each trial was determined to be the minimum withdrawal threshold for that animal trial. […]

rats [5] = assay: Hot Plate assay (HPA) withdrawal latency in formalin-induced rat pain model; assay type: in vivo; conditions: 52.5° C. hot plate; single 10 mg/kg IV administration
From the text: as §1, with “Reduction in pain perception and the duration of pain reduction were examined following intravenous bolus administration of 10 mg/kg psilocybin, administered over 3 minutes.” left out
The second pain measurement was based on the Hot Plate Assay (HPA), which measures the withdrawal latency at temperatures that register a painful response (i.e., thermal hyperalgesia). […] Once heated, each animal was placed in cylindrical tube on the hot plate and the latency to lick a hind paw or observed overt escape behavior (e.g., attempt to jump out of cylinder) was recorded (Ingram et al., Neruopsychopharmacology 2007; 32(3):600-6; Gunn et al., J Pain 2011; 12(2):222-7; Hestehave et al., Lab Anim 2016; 51(3):264-72). […]

[6] = Plasma psilocin pharmacokinetics during and after one-hour intravenous infusion of psilocin or psilocybin; conditions: for AUC(0-t): AUCT; for concentration at 0.25 h / concentration at 0.5 h / concentration at 1 h / concentration at 2 h / concentration at 4 h / concentration at 6 h / concentration at 8 h: Plasma concentration of psilocin
[7] = plasma psilocin, individual rats, 10 mg/kg psilocin one-hour IV infusion

In the case of CN(C)CCc1c[nH]c2cccc(OP(=O)(O)O)c12 [psilocybin, [3-(2-dimethylaminoethyl)-1H-indol-4-yl] dihydrogen phosphate], the “Time to discontinuation of head twitching response after termination of the infusion” value (rats [1]) is given as at most 30 min, the “Time to head twitching response after initiation of the infusion” value (rats [1]; all tested rats) is given as at most 5 min and the “Average peak concentration of psilocin in plasma” value [2] is given as 8.2+/−2.8 ng psilocin/ml plasma. For the same molecule, the “Time of peak plasma levels of psilocin” value [2] was 105 ± 37 min, the “Time after termination of infusion up to which head twitching was observed” value (rats [3]) was “up to 50 minutes” and the “Duration of statistically significant increase in VFA withdrawal threshold” value (rats [4]) was 3 weeks. For the same molecule, the “Duration of improved pain sensitivity response (HPA withdrawal latency) compared to saline control” value (rats [5]) was “at least 4 weeks”.

With CN(C)CCc1c[nH]c2cccc(O)c12 [psilocin, 4-hydroxy-N,N-dimethyltryptamine] the “Plasma concentration of psilocin” value ([6]; individual rats, 10 mg/kg psilocin one-hour IV infusion, sampling time 0.25 h) was 1031.8 ng/mL and 982.7 ng/mL, the “Plasma concentration of psilocin” value ([6]; individual rats, 10 mg/kg psilocin one-hour IV infusion, sampling time 0.5 h) was 1731.6 ng/mL and 1489.3 ng/mL and the “Plasma concentration of psilocin” value ([6]; individual rats, 10 mg/kg psilocin one-hour IV infusion, sampling time 1 h) was 2159.5 ng/mL and 1623.2 ng/mL. The “Plasma concentration of psilocin” value ([6]; individual rats, 10 mg/kg psilocin one-hour IV infusion, sampling time 2 h) was 965.6 ng/mL and 740.4 ng/mL, the “Plasma concentration of psilocin” value ([6]; individual rats, 10 mg/kg psilocin one-hour IV infusion, sampling time 4 h) was 249.1 ng/mL and 231.7 ng/mL and the “Plasma concentration of psilocin” value ([6]; individual rats, 10 mg/kg psilocin one-hour IV infusion, sampling time 6 h) was 80.2 ng/mL and 59.6 ng/mL. For the same molecule, the “Plasma concentration of psilocin” value ([6]; individual rats, 10 mg/kg psilocin one-hour IV infusion, sampling time 8 h) was 22.5 ng/mL and 26.8 ng/mL, the Tmax ([6]; male, Sprague Dawley, rat, plasma, iv, 10 mg/kg) was 1 h and the AUC(0-t) ([6]; male, Sprague Dawley, rat, plasma, iv, 10 mg/kg, plasma psilocin, individual rats, 10 mg/kg psilocin one-hour IV infusion) was 3550 ng·h/mL. The AUC(0-t) ([6]; male, Sprague Dawley, rat, plasma, iv, 10 mg/kg, plasma psilocin, mean of 3 rats, 10 mg/kg psilocin one-hour IV infusion) was 3980 ng·h/mL, the Cmax ([6]; male, Sprague Dawley, rat, plasma, iv, 10 mg/kg, Cmax, plasma psilocin, individual rats, 10 mg/kg psilocin one-hour IV infusion) was 1610 ng/mL and the Cmax ([6]; male, Sprague Dawley, rat, plasma, iv, 10 mg/kg, Cmax, plasma psilocin, mean of 3 rats, 10 mg/kg psilocin one-hour IV infusion) was 1800 ng/mL. For the same molecule, the concentration at 0.25 h ([6]; male, Sprague Dawley, rat, plasma, iv, 10 mg/kg, individual rats, 10 mg/kg psilocin one-hour IV infusion, sampling time 0.25 h) was 1070 ng/mL, the concentration at 0.5 h ([6]; male, Sprague Dawley, rat, plasma, iv, 10 mg/kg, individual rats, 10 mg/kg psilocin one-hour IV infusion, sampling time 0.5 h) was 1510 ng/mL and the concentration at 1 h ([6]; male, Sprague Dawley, rat, plasma, iv, 10 mg/kg, individual rats, 10 mg/kg psilocin one-hour IV infusion, sampling time 1 h) was 1610 ng/mL. For the same molecule, the concentration at 2 h ([6]; male, Sprague Dawley, rat, plasma, iv, 10 mg/kg, individual rats, 10 mg/kg psilocin one-hour IV infusion, sampling time 2 h) was 714 ng/mL, the concentration at 4 h ([6]; male, Sprague Dawley, rat, plasma, iv, 10 mg/kg, individual rats, 10 mg/kg psilocin one-hour IV infusion, sampling time 4 h) was 164 ng/mL and the concentration at 6 h ([6]; male, Sprague Dawley, rat, plasma, iv, 10 mg/kg, individual rats, 10 mg/kg psilocin one-hour IV infusion, sampling time 6 h) was 47.7 ng/mL. It also gave a concentration at 8 h ([6]; male, Sprague Dawley, rat, plasma, iv, 10 mg/kg, individual rats, 10 mg/kg psilocin one-hour IV infusion, sampling time 8 h) of 17.3 ng/mL, a concentration at 0.25 h ([6]; male, Sprague Dawley, rat, plasma, iv, 10 mg/kg, mean of 3 rats, 10 mg/kg psilocin one-hour IV infusion, sampling time 0.25 h) of 1030 ng/mL and a concentration at 0.5 h ([6]; male, Sprague Dawley, rat, plasma, iv, 10 mg/kg, mean of 3 rats, 10 mg/kg psilocin one-hour IV infusion, sampling time 0.5 h) of 1580 ng/mL. The concentration at 1 h ([6]; male, Sprague Dawley, rat, plasma, iv, 10 mg/kg, mean of 3 rats, 10 mg/kg psilocin one-hour IV infusion, sampling time 1 h) was 1800 ng/mL, the concentration at 2 h ([6]; male, Sprague Dawley, rat, plasma, iv, 10 mg/kg, mean of 3 rats, 10 mg/kg psilocin one-hour IV infusion, sampling time 2 h) was 807 ng/mL and the concentration at 4 h ([6]; male, Sprague Dawley, rat, plasma, iv, 10 mg/kg, mean of 3 rats, 10 mg/kg psilocin one-hour IV infusion, sampling time 4 h) was 215 ng/mL. The concentration at 6 h ([6]; male, Sprague Dawley, rat, plasma, iv, 10 mg/kg, mean of 3 rats, 10 mg/kg psilocin one-hour IV infusion, sampling time 6 h) was 62.5 ng/mL, the concentration at 8 h ([6]; male, Sprague Dawley, rat, plasma, iv, 10 mg/kg, mean of 3 rats, 10 mg/kg psilocin one-hour IV infusion, sampling time 8 h) was 22.2 ng/mL and the AUCT [6, 7] was 4656.4 ng·h/mL and 3741.6 ng·h/mL. For the same molecule, the Cmax [6, 7] was 2159.5 ng/mL and 1623.2 ng/mL, the “Rats in which head-twitching was observed” value (rats [3]; 60 minute period after one hour 10 mg/kg IV infusion) was 2 of 3 and the “Time after termination of infusion up to which head twitching was observed” value (rats [3]) was at most 16 min.
